# Laboratory results as given in patent publication US20110224079A1, “SPIROHETEROCYCLIC N-OXYAMIDES AS PESTICIDES” (SYNGENTA CROP PROTECTION LLC, priority 2008, published 2011).
# Columns and labels:
# [1] = test system: Myzus persicae (green peach aphid); assay: Example B1: activity against Myzus persicae, sprayed sunflower leaf discs (feeding/residual contact, preventive); details: foliar, 144 h, read-out: activity (mortality)
# [2] = test system: Nilaparvata lugens (brown rice planthopper); assay: Example B8: activity against Nilaparvata lugens, sprayed rice seedlings (larvicide, feeding/contact); details: in Oryza sativa, read-out: activity (mortality, growth regulation, effects on F1 generation)
# [3] = test system: Myzus persicae (green peach aphid); assay: Example B13: drench activity against Myzus persicae, pea seedlings in field soil; details: 168 h, read-out: drench activity (mortality)
# [4] = test system: Tetranychus urticae (two-spotted spider mite); assay: Example B4: activity against Tetranychus urticae, sprayed bean leaf discs (feeding/residual contact, preventive); details: foliar, 192 h, read-out: activity (egg, larval and adult mortality)
# [5] = test system: Myzus persicae (green peach aphid); assay: Example B2: activity against Myzus persicae, pea seedling roots in test solution (systemic/feeding, curative); details: 144 h, read-out: activity (mortality)
# [6] = test system: Myzus persicae (green peach aphid); assay: Example B17: activity against Myzus persicae on sprayed pepper plants (feeding/residual contact); format: in vivo; details: 144 h, infested pepper plants sprayed, 6 days
# [7] = test system: Aphis Craccivora (cowpea aphid); assay: Example B11: translaminar activity against Aphis craccivora on French bean leaves; format: in vivo; details: 120 h, upper leaf side painted, aphids on lower side, 5 days
# Description: Translaminar Activity Against Aphis Craccivora (Cowpea Aphid)
# French bean leaves (Phaseolus vulgaris) are infested with about 20 mixed age individuals on the lower leaf side using clip cages. 1 day after the infestation, the upper side of the leaves is treated with the test solution by painting. 5 days later, samples are checked for mortality.
# [8] = test system: Aphis Craccivora (cowpea aphid); assay: Example B10: activity against Aphis craccivora, pea seedling roots in test solution (systemic/feeding); format: in vivo; details: 144 h, roots of infested pea seedlings in test solution, 6 days
# Excerpt: Activity Against Aphis Craccivora (Cowpea Aphid)
# (Mixed Population, Systemic/Feeding)
# [9] = test system: Thrips tabaci (onion thrips); assay: Example B3: activity against Thrips tabaci, sprayed sunflower leaf discs (feeding/residual contact, preventive); format: in vivo; details: foliar, 144 h, mixed population, 6 days
# Excerpt: Activity Against Thrips tabaci (Onion Thrips)
# (Mixed Population, Feeding/Residual Contact Activity, Preventive)
# [10] = test system: Bemisia tabaci (tobacco white fly); assay: Example B7: activity against Bemisia tabaci, sprayed bean plants (larvicide, contact/feeding); format: in vivo; details: 504 h, bean plants with N-2 nymphs sprayed, three weeks, read-out: activity (efficacy, number of emerged adults)
# Description: Activity Against Bemisia tabaci (Tobacco White Fly)
# (Larvicide, Contact/Feeding)
# Bean plants are infested with 20-30 adults that were removed after a 4 day egg-laying period. After another 7 days, bean plants with hatched nymphs (N-2) are treated (2 replicates) with the test solutions in a spray chamber. Three weeks later, samples are checked for number of emerged adults. Efficacy was calculated by comparing number of emerged adults in treated and non treated samples.
SMILES,mortality at 400 ppm [1] [%],mortality at 400 ppm [2] [%],mortality at 25 ppm [3] [%],mortality at 400 ppm [4] [%],mortality at 400 ppm [5] [%],mortality at 200 ppm [6] [%],mortality at 400 ppm [7] [%],mortality at 400 ppm [8] [%],mortality at 400 ppm [9] [%],pest or weed control at 200 ppm [10] [%]
CCOC(=O)OC1=C(c2c(C)cc(Br)cc2C)C(=O)N(OC)C12CCN(OC)CC2 [P1.88],> 80,> 80,> 80,> 80,> 80,≥ 80,,,,
CCOC(=O)OC1=C(c2c(C)cc(C)cc2Cl)C(=O)N(OC2CCCO2)C12CCN(OC)CC2 (stereo not drawn) [P1.107],> 80,> 80,> 80,,> 80,≥ 80,> 80,> 80,,
CON1CCC2(CC1)C(O)=C(c1cc(C)ccc1C)C(=O)N2OC [P2.1],> 80,,> 80,,> 80,,,,,
COCCON1C(=O)C(c2cc(C)ccc2C)=C(O)C12CCN(OC)CC2 [P2.3],> 80,> 80,> 80,,> 80,≥ 80,> 80,,,
CON1CCC2(CC1)C(O)=C(c1c(C)cc(C)cc1C)C(=O)N2OCC1(C)COC1 [P2.19],> 80,> 80,,> 80,> 80,≥ 80,> 80,> 80,,
CON1CCC2(CC1)C(O)=C(c1c(C)cc(C)cc1C)C(=O)N2OC1CCOCC1 [P2.21],> 80,> 80,> 80,> 80,> 80,≥ 80,> 80,> 80,,
CON1CCC2(CC1)C(O)=C(c1c(C)cc(C)cc1C)C(=O)N2OCC1CCCCO1 (stereo not drawn) [P2.23],> 80,> 80,,,> 80,,> 80,> 80,,
CON1CCC2(CC1)C(O)=C(c1c(C)cc(C)cc1C)C(=O)N2OC1CCCC1 [P2.25],> 80,> 80,,> 80,> 80,,,,,
CON1CCC2(CC1)C(O)=C(c1ccc(C)cc1C)C(=O)N2OC [P2.51],> 80,,,,> 80,,,,> 80,
COCCON1C(=O)C(c2c(C)cc(C)cc2Br)=C(O)C12CCN(OC)CC2 [P2.57],> 80,> 80,> 80,> 80,> 80,,> 80,> 80,,
CON1CCC2(CC1)C(O)=C(c1c(C)cc(Br)cc1C)C(=O)N2OC1CCCO1 (stereo not drawn) [P2.62],,,,,> 80,≥ 80,,,> 80,
CON1CCC2(CC1)C(O)=C(c1c(C)cc(C)cc1C)C(=O)N2OCc1ccoc1 [P2.64],> 80,> 80,> 80,> 80,> 80,≥ 80,> 80,> 80,,> 80
CON1CCC2(CC1)C(O)=C(c1c(C)cc(C)cc1C)C(=O)N2OCC1CCOC1 (stereo not drawn) [P2.67],> 80,,,> 80,> 80,≥ 80,,,> 80,
COCCON1C(=O)C(c2c(C)cccc2C)=C(O)C12CCN(OC)CC2 [P2.77],> 80,,,,> 80,≥ 80,,,> 80,
CON1CCC2(CC1)C(O)=C(c1c(C)cc(C)cc1C)C(=O)N2OCC1CCOCC1 [P2.84],> 80,,,,> 80,,,,> 80,
CON1CCC2(CC1)C(O)=C(c1c(C)cc(C)cc1C)C(=O)N2OCC1CCC1 [P2.97],> 80,,,> 80,> 80,≥ 80,,,,
